Here are results for 1 compound from patent US20230330254A1 (Regeneron Pharmaceuticals, Inc., priority 2022, published 2023).

As usually defined, the fraction unbound is the share of the substance not bound to proteins or other matrix. A higher fraction unbound goes with weak binding.

SMILES strings stand for the structures.

This data set in a line: Plasma protein binding (equilibrium dialysis). It is filed as in vitro ADME, human. Here is the method: The pH value of the resulting plasma was checked
(<http://www.htdialysis.com/>).
DMSO working solutions were prepared at 400 μM. […] These samples were transferred into new 96-well plates.
(In general: In equilibrium dialysis free small molecules cross a membrane that holds back macromolecules.)

`CCc1cc(OCCCCn2cc(COCCOCCOCCOCCOCCOCCOCCOCCN)nn2)ccc1-c1ccc(C[C@H](NC(=O)[C@H](CC(=O)O)NC(=O)[C@H](CO)NC(=O)[C@@H](NC(=O)C(C)(Cc2ccccc2F)NC(=O)[C@@H](NC(=O)CNC(=O)[C@H](Cc2nn[nH]n2)NC(=O)C(C)(C)C(=O)NCCc2cnc[nH]2)[C@@H](C)O)[C@@H](C)O)C(=O)N[C@@H](CCCc2cc(C)cc(C)c2)C(N)=O)cc1` (stereo partly shown) [LP11, NH2-PEG8-triazole-P8]: under “Human Plasma, 4 hours dialysis”, the “% Bound” value came out at 97.97%; the “% Unbound” value worked out at 2.03%; the recovery at 4 h, 2 µM came to 89.2%. The fraction unbound at 4 h, 2 µM (human, plasma, Table 5C) was 0.0203.
